Bridge positions count the residues as written; N and C are the ends. Square brackets hold non-standard residues; d marks the D form. Peptide text beside a SMILES is read from it. * marks the point of attachment. ξ: configuration not given here. Phe(4-COOH) = N[C@@H](Cc1ccc(C(=O)O)cc1)C(=O)O; Bip = N[C@@H](Cc1ccc(-c2ccccc2)cc1)C(=O)O; Phe(3-Me) = Cc1cccc(C[C@H](N)C(=O)O)c1; 4Pal = N[C@@H](Cc1ccncc1)C(=O)O; Cha = N[C@@H](CC1CCCCC1)C(=O)O; Cit = NC(=O)NCCC[C@H](N)C(=O)O; Thr(3ξ) = CC(O)[C@H](N)C(=O)O; dDab = NCC[C@@H](N)C(=O)O; hSer = N[C@@H](CCO)C(=O)O; Carboxymethyl = O=C(O)C*; Orn = NCCC[C@H](N)C(=O)O; Aun = NCCCCCCCCCCC(=O)O; Dab = NCC[C@H](N)C(=O)O; Dap = NC[C@H](N)C(=O)O; AEEA = NCCOCCOCC(=O)O; ξC = NC(CS)C(=O)O
molecular target: T1, PD-1/PD-L1 interaction (PE-labeled human PD-L1-Ig binding to Jurkat cell line over-expressing human PD-1) (Homo sapiens, UniProt Q15116); assay: Jurkat-PD-1 Cell Binding High-Content Screening Assay (CBA); format: cell-based; settings: Jurkat cell line over-expressing human PD-1; PE-labeled PD-L1-Ig 20 nM final; read-out: Jurkat hPD1-PDL1 IC50
T1 construct: expressed in transfected cells; host or cells: Jurkat
How it was run: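 Jurkat cells stably over-expressing human PD-1 were seeded in DMEM with 10% fetal calf serum and pre-incubated with compound for 2 h at 37° C. PE-labeled human PD-L1-Ig was then added at 20 nM final for 1 hour, after which cells were fixed with paraformaldehyde, Hoechst-stained and imaged by high-content microscopy.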

T1 sequence (Q15116 25-288): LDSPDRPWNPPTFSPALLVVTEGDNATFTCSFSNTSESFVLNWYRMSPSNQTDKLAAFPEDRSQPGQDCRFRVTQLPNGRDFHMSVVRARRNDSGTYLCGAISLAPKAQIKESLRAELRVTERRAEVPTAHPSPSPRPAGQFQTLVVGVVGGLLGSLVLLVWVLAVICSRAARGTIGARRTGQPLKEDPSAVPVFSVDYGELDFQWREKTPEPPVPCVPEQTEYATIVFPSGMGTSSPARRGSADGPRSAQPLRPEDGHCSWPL

| IC50 [nM] | SMILES |
| --- | --- |
| 11.7 | CC(C)C[C@H]1NC(=O)[C@H](CCCN)NC(=O)[C@H](C(C)C)NC(=O)[C@H](Cc2ccc(-c3ccccc3)cc2)NC(=O)[C@H](C(C)C)NC(=O)[C@H](Cc2c[nH]c3ccccc23)NC(=O)[C@H](CC(=O)O)NC(=O)[C@H](Cc2ccc(OCC(=O)O)cc2)NC(=O)[C@H](CCCNC(=N)N)NC(=O)CSC[C@@H](C(=O)NCC(=O)NCCOCCOCC(=O)N[C@@H](CCCN)C(=O)NCCCCCCCCCCC(=O)O)NC(=O)[C@H](CN)NC(=O)[C@H](C(C)C)NC(=O)[C@H](CC2CCCCC2)NC(=O)[C@H](CCN)NC1=O [Compound 3238] ({CH2CO}-RY(Carboxymethyl)DWV[Bip]V[Orn][dL][Dab][Cha]V[Dap]CG[AEEA][Orn][Aun]-OH; thioether N-14) |
| 39.5 | CC(C)C[C@H]1NC(=O)[C@H](CCCN)NC(=O)[C@H](C(C)C)NC(=O)[C@H](Cc2ccc(-c3ccccc3)cc2)NC(=O)[C@H](C(C)C)NC(=O)[C@H](Cc2c[nH]c3ccccc23)NC(=O)[C@H](CC(=O)O)NC(=O)[C@H](Cc2c[nH]cn2)NC(=O)[C@H](CCCNC(=N)N)NC(=O)CSC[C@@H](C(=O)N[C@@H](CCN)C(=O)NCCCCCCCCCCC(=O)O)NC(=O)[C@H](CCCCN)NC(=O)[C@H](C(C)C)NC(=O)[C@H](CC2CCCCC2)NC(=O)[C@H](CCN)NC1=O [Compound 3290] ({CH2CO}-RHDWV[Bip]V[Orn][dL][Dab][Cha]VKC[Dab][Aun]-OH; thioether N-14) |
| 30.7 | CC(C)C[C@H]1NC(=O)[C@H](CCCN)NC(=O)[C@H](C(C)C)NC(=O)[C@H](Cc2ccc(-c3ccccc3)cc2)NC(=O)[C@H](C(C)C)NC(=O)[C@H](Cc2c[nH]c3ccccc23)NC(=O)[C@H](CC(=O)O)NC(=O)[C@H](Cc2ccc(OCC(=O)O)cc2)NC(=O)[C@H](CN)NC(=O)CSCC(C(=O)N[C@H](CCN)C(=O)NCCCCCCCCCCC(=O)O)NC(=O)[C@H]([C@@H](C)O)NC(=O)[C@H](C(C)C)NC(=O)[C@H](CC2CCCCC2)NC(=O)[C@H](Cc2cnc[nH]2)NC1=O (stereo partly drawn) [Compound 1118] ({CH2CO}-[Dap]Y(Carboxymethyl)DWV[Bip]V[Orn][dL]H[Cha]VT[ξC][dDab][Aun]-OH; thioether N-14) |
| 54.5 | Cc1cccc(C[C@@H]2NC(=O)[C@H](CC(=O)O)NC(=O)[C@H](Cc3ccc(OCC(=O)O)cc3)NC(=O)[C@H](Cc3ccccc3)NC(=O)CSC[C@@H](C(=O)N[C@@H](CCN)C(=O)NCCCCCCCCCCC(=O)O)NC(=O)[C@H](Cc3cnc[nH]3)NC(=O)[C@H](C(C)O)NC(=O)[C@H](CC3CCCCC3)NC(=O)[C@H](CCN)NC(=O)[C@@H](CC(C)C)NC(=O)[C@H](CCCN)NC(=O)[C@H](Cc3ccc(OCC(=O)O)cc3)NC(=O)[C@H](Cc3ccc(-c4ccccc4)cc3)NC(=O)[C@H](Cc3ccc(C(=O)O)cc3)NC2=O)c1 (stereo partly drawn) [Compound 3709] ({CH2CO}-FY(Carboxymethyl)D[Phe(3-Me)][Phe(4-COOH)][Bip]Y(Carboxymethyl)[Orn][dL][Dab][Cha][Thr(3ξ)]HC[Dab][Aun]-OH; thioether N-14) |
| 34 | Cc1cccc(C[C@@H]2NC(=O)[C@H](CC(=O)O)NC(=O)[C@H](Cc3ccc(OCC(=O)O)cc3)NC(=O)[C@H](CN)NC(=O)CSC[C@@H](C(=O)N[C@@H](CCN)C(=O)NCCOCCOCC(=O)NCCCCCCCCCCC(=O)O)NC(=O)[C@H](C(C)O)NC(=O)[C@H](Cc3ccc(O)cc3)NC(=O)[C@H](CC3CCCCC3)NC(=O)[C@H](CCN)NC(=O)[C@@H](CC(C)C)NC(=O)[C@H](CCCN)NC(=O)[C@H](Cc3ccc(O)cc3)NC(=O)[C@H](Cc3ccc(-c4ccccc4)cc3)NC(=O)[C@H](C(C)C)NC2=O)c1 (stereo partly drawn) [Compound 2577] ({CH2CO}-[Dap]Y(Carboxymethyl)D[Phe(3-Me)]V[Bip]Y[Orn][dL][Dab][Cha]Y[Thr(3ξ)]C[Dab][AEEA][Aun]-OH; thioether N-14) |
| 17.4 | CC(C)C[C@H]1NC(=O)[C@H](CCCN)NC(=O)[C@H](C(C)C)NC(=O)[C@H](Cc2ccc(-c3ccccc3)cc2)NC(=O)[C@H](C(C)C)NC(=O)[C@H](Cc2c[nH]c3ccccc23)NC(=O)[C@H](CC(=O)O)NC(=O)[C@H](Cc2ccc(OCC(=O)O)cc2)NC(=O)[C@H](Cc2ccncc2)NC(=O)CSC[C@@H](C(=O)NCC(=O)NCCOCCOCC(=O)N[C@@H](CCCN)C(=O)NCCCCCCCCCCC(=O)O)NC(=O)[C@H](CCCN)NC(=O)[C@H](C(C)C)NC(=O)[C@H](CC2CCCCC2)NC(=O)[C@H](CC(N)=O)NC1=O [Compound 3207] ({CH2CO}-[4Pal]Y(Carboxymethyl)DWV[Bip]V[Orn][dL]N[Cha]V[Orn]CG[AEEA][Orn][Aun]-OH; thioether N-14) |
| 7.9 | Cc1cccc(C[C@@H]2NC(=O)[C@H](CC(=O)O)NC(=O)[C@H](Cc3ccc(OCC(=O)O)cc3)NC(=O)[C@H](CN)NC(=O)CSC[C@@H](C(=O)N[C@@H](C)C(=O)NCCOCCOCC(=O)N[C@@H](CCC(=O)O)C(=O)NCCCCCCCCCCC(=O)O)NC(=O)[C@H]([C@@H](C)O)NC(=O)[C@H](C(C)C)NC(=O)[C@H](CC3CCCCC3)NC(=O)[C@H](CCN)NC(=O)[C@@H](CC(C)C)NC(=O)[C@H](CCCN)NC(=O)[C@H](CCCNC(N)=O)NC(=O)[C@H](Cc3ccc(-c4ccccc4)cc3)NC(=O)[C@H](C(C)C)NC2=O)c1 [Compound 1007] ({CH2CO}-[Dap]Y(Carboxymethyl)D[Phe(3-Me)]V[Bip][Cit][Orn][dL][Dab][Cha]VTCA[AEEA]E[Aun]-OH; thioether N-14) |
| 81.1 | CC(C)C[C@H]1NC(=O)[C@H](CCCN)NC(=O)[C@H](C(C)C)NC(=O)[C@H](Cc2ccc(-c3ccccc3)cc2)NC(=O)[C@H](C(C)C)NC(=O)[C@H](Cc2c[nH]c3ccccc23)NC(=O)[C@H](CC(=O)O)NC(=O)[C@H](Cc2ccc(OCC(=O)O)cc2)NC(=O)[C@H](CN)NC(=O)CSC[C@@H](C(=O)NCCOCCOCC(=O)N[C@H](Cc2cnc[nH]2)C(=O)NCCCCCCCCCCC(=O)O)NC(=O)[C@H]([C@@H](C)O)NC(=O)[C@H](C(C)C)NC(=O)[C@H](CC2CCCCC2)NC(=O)[C@H](Cc2cnc[nH]2)NC1=O [Compound 1135] ({CH2CO}-[Dap]Y(Carboxymethyl)DWV[Bip]V[Orn][dL]H[Cha]VTC[AEEA][dH][Aun]-OH; thioether N-14) |
| 10.8 | Cc1cccc(C[C@@H]2NC(=O)[C@H](CC(=O)O)NC(=O)[C@H](Cc3ccc(OCC(=O)O)cc3)NC(=O)[C@H](CN)NC(=O)CSC[C@@H](C(=O)NCCOCCOCC(=O)N[C@@H](CCN)C(=O)NCCCCCCCCCCC(=O)O)NC(=O)[C@H](CCCN)NC(=O)[C@H](C(C)C)NC(=O)[C@H](CC3CCCCC3)NC(=O)[C@H](CCN)NC(=O)[C@@H](CC(C)C)NC(=O)[C@H](CCCN)NC(=O)[C@H](Cc3ccc(O)cc3)NC(=O)[C@H](Cc3ccc(-c4ccccc4)cc3)NC(=O)[C@H](C(C)C)NC2=O)c1 [Compound 2592] ({CH2CO}-[Dap]Y(Carboxymethyl)D[Phe(3-Me)]V[Bip]Y[Orn][dL][Dab][Cha]V[Orn]C[AEEA][Dab][Aun]-OH; thioether N-14) |
| 13.9 | Cc1cccc(C[C@@H]2NC(=O)[C@H](CC(=O)O)NC(=O)[C@H](Cc3ccc(OCC(=O)O)cc3)NC(=O)[C@H](CN)NC(=O)CSC[C@@H](C(=O)N[C@@H](CCN)C(=O)NCCCCCCCCCCC(=O)O)NC(=O)[C@H](CCO)NC(=O)[C@H](C(C)C)NC(=O)[C@H](CC3CCCCC3)NC(=O)[C@H](CCN)NC(=O)[C@@H](CC(C)C)NC(=O)[C@H](CCCN)NC(=O)[C@H](Cc3ccc(OCC(=O)O)cc3)NC(=O)[C@H](Cc3ccc(-c4ccccc4)cc3)NC(=O)[C@H](Cc3ccc(O)cc3)NC2=O)c1 [Compound 2100] ({CH2CO}-[Dap]Y(Carboxymethyl)D[Phe(3-Me)]Y[Bip]Y(Carboxymethyl)[Orn][dL][Dab][Cha]V[hSer]C[Dab][Aun]-OH; thioether N-14) |
| 20.5 | Cc1cccc(C[C@@H]2NC(=O)[C@H](CC(=O)O)NC(=O)[C@H](Cc3ccc(OCC(=O)O)cc3)NC(=O)[C@H](CCCNC(=N)N)NC(=O)CSC[C@@H](C(=O)N[C@@H](CCN)C(=O)NCCCCCCCCCCC(=O)O)NC(=O)[C@H](C(C)O)NC(=O)[C@H](C(C)C)NC(=O)[C@H](CC3CCCCC3)NC(=O)[C@H](CCN)NC(=O)[C@@H](CC(C)C)NC(=O)[C@H](CCCN)NC(=O)[C@H](Cc3ccc(OCC(=O)O)cc3)NC(=O)[C@H](Cc3ccc(-c4ccccc4)cc3)NC(=O)[C@H](CC(C)C)NC2=O)c1 (stereo partly drawn) [Compound 3387] ({CH2CO}-RY(Carboxymethyl)D[Phe(3-Me)]L[Bip]Y(Carboxymethyl)[Orn][dL][Dab][Cha]V[Thr(3ξ)]C[Dab][Aun]-OH; thioether N-14) |
| 69.5 | CC(C)C[C@H]1NC(=O)[C@H](CCCN)NC(=O)[C@H](C(C)C)NC(=O)[C@H](Cc2ccc(-c3ccccc3)cc2)NC(=O)[C@H](C(C)C)NC(=O)[C@H](Cc2c[nH]c3ccccc23)NC(=O)[C@H](CC(=O)O)NC(=O)[C@H](Cc2ccc(OCC(=O)O)cc2)NC(=O)[C@H](CN)NC(=O)CSC[C@@H](C(=O)N[C@@H](CN)C(=O)NCCCCCCCCCCC(=O)O)NC(=O)[C@H]([C@@H](C)O)NC(=O)[C@H](C(C)C)NC(=O)[C@H](CC2CCCCC2)NC(=O)[C@H](Cc2c[nH]cn2)NC1=O [Compound 1074] ({CH2CO}-[Dap]Y(Carboxymethyl)DWV[Bip]V[Orn][dL]H[Cha]VTC[Dap][Aun]-OH; thioether N-14) |
| 71.1 | Cc1cccc(C[C@@H]2NC(=O)[C@H](CC(=O)O)NC(=O)[C@H](Cc3ccc(OCC(=O)O)cc3)NC(=O)[C@H](CN)NC(=O)CSC[C@@H](C(=O)N[C@@H](CCN)C(=O)NCCCCCCCCCCC(=O)O)NC(=O)[C@H](Cc3ccc(O)cc3)NC(=O)[C@H](C(C)C)NC(=O)[C@H](CC(C)C)NC(=O)[C@H](CCN)NC(=O)[C@@H](CC(C)C)NC(=O)[C@H](CCCN)NC(=O)[C@H](Cc3ccc(O)cc3)NC(=O)[C@H](Cc3ccc(-c4ccccc4)cc3)NC(=O)[C@H](CC(C)C)NC2=O)c1 [Compound 2759] ({CH2CO}-[Dap]Y(Carboxymethyl)D[Phe(3-Me)]L[Bip]Y[Orn][dL][Dab]LVYC[Dab][Aun]-OH; thioether N-14) |

— patent US20260022142A1, “MACROCYCLIC IMMUNOMODULATORS” (Bristol-Myers Squibb Company, priority 2022, published 2026)
